Experimental data reported in patent US20170028013A1 (Teva Pharmaceutical Industries, Ltd., priority 2015, published 2017).

Assays:
[1] = Laq-Na dose incorporated in a clear GA product at increased amino acid concentration; assay type: physicochemical
Method: To 6.015 g of Solution C additional amounts of Laq-Na were added drop by drop at stirring at RT. The solutions obtained were clear at 2-8° C. and at RT at Laq-Na concentrations 1.28, 1.49, 1.75 mg/mL.

[2] = in vivo; cited from earlier work
[3] = Saturated solution of laquinimod acid in 0.1 M PBS; assay type: physicochemical; details: 0.1 M PBS pH 7.4, RT
Method: A saturated solution of laquinimod acid […] was prepared by dissolving of 4.2283 g of Laq-acid in 0.1 M PBS (pH 7.4, 700 mL) for 3.5 h at RT. After decantation of the suspension the clear upper part was filtered through a paper (Whatman) filter. This clear, filtered solution contained about 1.5 mg/mL of laquinimod acid (Solution A).

[4] = pH optimum for stability and solubility; assay type: physicochemical
Description: Developing formulations containing laquinimod and GA is particularly difficult because laquinimod and GA have different pH optimums in terms of stability and solubility and because of undesired effects, mainly gelation or the formation of turbid formulations in the presence of various buffers, solvents and surface active agents.

[5] = tested on: acute experimental autoimmune encephalomyelitis (aEAE) model; details: in vivo; cited from earlier work
multiple sclerosis (MS) = details: cited from earlier work

## CCN(C(=O)c1c(O)c2c(Cl)cccc2n(C)c1=O)c1ccccc1 [Laquinimod sodium]
[1]; glycine 0.6 mg/mL
  Laq-Na possible to incorporate: 1.05 to 1.07 mg/mL
[1]; glycine 4.2 mg/mL
  Laq-Na possible to incorporate: 1.51 mg/mL
[1]; lysine 1.39 mg/mL
  Laq-Na possible to incorporate: 1.06 to 1.09 mg/mL
[1]; lysine 3.38 mg/mL
  Laq-Na possible to incorporate: 1.88 mg/mL
[1]; proline 0.9 mg/mL
  Laq-Na possible to incorporate: 1.06 to 1.09 mg/mL
[1]; proline 2.45 mg/mL
  Laq-Na possible to incorporate: 1.55 mg/mL
[2]
  Oral bioavailability: high

## CCN(C(=O)c1c(O)c2c(Cl)cccc2n(C)c1=O)c1ccccc1 [Laquinimod, N-ethyl-N-phenyl-1,2-dihydro-4-hydroxy-5-chloro-1-methyl-2-oxoquinoline-3-carboxamide]
[3]
  Laquinimod acid in the clear filtered saturated solution: about 1.5 mg/mL
[4]
  Solubility and stability versus pH: more soluble and stable in alkaline media
[5]
  Efficacy in aEAE model: effective
Multiple sclerosis (MS); relapsing MS
  Development of active MRI lesions: reduce development of active MRI lesions

## L-glutamic acid polymer with L-alanine, L-lysine and L-tyrosine, acetate (salt) [Glatiramer acetate]
Multiple sclerosis (MS); daily subcutaneous injections, 20 mg/injection
  Relapse rates, progression of disability, new MRI lesions: reduce relapse rates
Multiple sclerosis (MS); in vivo
  Efficacy in treating multiple sclerosis: effective
